The results in this text go back to patent US11685746B2, “Heteroaryl compounds for treating Huntington's disease” (PTC THERAPEUTICS, INC., priority 2018, dated 2023).

Each structure is given as a SMILES string. pIC50: −log10 of the molar value.

For this assay, the system named is Endogenous Huntingtin Protein. The assay is described as follows: Endogenous Huntingtin Protein Assay (MSD plates, MW1 or MAB2166 capture antibody). The assay is classed as cell-based. As to conditions: Table 1. As to the method:
Endogenous Huntingtin Protein Assay
Meso Scale Discovery (MSD) 96-well or 384-well plates were coated overnight at 4° C. with MW1 (expanded polyglutamine) or MAB2166 monoclonal antibody (for capture) at a concentration of 1 μg/mL in PBS (30 μL per well). Plates were then washed three times with 300 μL wash buffer (0.05% Tween-20 in PBS) and blocked (100 μL blocking buffer; 5% BSA in PBS) for 4-5 hours at room temperature with rotational shaking and then washed three times with wash buffer.
Samples (25 μL) were transferred to the antibody-coated MSD plate and incubated overnight at 4° C. After removal of the lysates, the plate was washed three times with wash buffer, and 25 μL of #5656S (Cell signaling; rabbit monoclonal) secondary antibody (diluted to 0.25 μg/mL in 0.05% Tween-20 in blocking buffer) was added to each well and incubated with shaking for 1 Hour at room temperature. Following incubation with the secondary antibody, the wells were rinsed with wash buffer after which 25 μL of goat anti-rabbit SULFO TAG secondary detection antibody (required aspect of the MSD system) (diluted to 0.25 μg/mL in 0.05% Tween-20 in blocking buffer) was added to each well and incubated with shaking for 1 hour at room temperature. After rinsing three times with wash buffer, 150 μL of read buffer T with surfactant (MSD) were added to each empty well, and the plate was imaged on a SI 6000 imager (MSD) according to manufacturers' instructions provided for 96- or 384-well plates.

As a reminder, the pIC50 is the IC50 on a negative log10 scale, so that one unit is a factor of ten. High values mean a low IC50, low ones a high IC50. The compound `CN(c1nc2sc(-c3ccc(-c4cn[nH]c4)cc3O)nc2s1)C1CC(C)(C)NC(C)(C)C1` [Compound 1, 2-{5-[methyl(2,2,6,6-tetramethylpiperidin-4-yl)amino][1,3]thiazolo[5,4-d][1,3]thiazol-2-yl}-5-(1H-pyrazol-4-yl)phenol] had a pIC50 of at least 7.00.

Consider `Cc1cc(-c2cn3cc(C4CCNCC4)nc3s2)cc2cn(C)nc12` [Compound 2, 2,7-dimethyl-5-[6-(piperidin-4-yl)imidazo[2,1-b][1,3]thiazol-2-yl]-2H-indazole], for which the pIC50 is at least 7.00.

For the compound `CN(c1nc2sc(-c3ccc(-c4cn[nH]c4)c(F)c3F)nc2s1)C1CC(C)(C)NC(C)(C)C1` [Compound 3, 5-[2,3-difluoro-4-(1H-pyrazol-4-yl)phenyl]-N-methyl-N-(2,2,6,6-tetramethylpiperidin-4-yl)[1,3]thiazolo[5,4-d][1,3]thiazol-2-amine], the pIC50 was 6.30 to 7.00.

`CN(c1nc2sc(-c3cc(F)c(-c4cn[nH]c4)cc3F)nc2s1)C1CC(C)(C)NC(C)(C)C1` [Compound 4, 5-[2,5-difluoro-4-(1H-pyrazol-4-yl)phenyl]-N-methyl-N-(2,2,6,6-tetramethylpiperidin-4-yl)[1,3]thiazolo[5,4-d][1,3]thiazol-2-amine] had a pIC50 of at least 7.00.

`CN(c1nc2sc(-c3cc(F)c(-c4cn[nH]c4)c(F)c3)nc2s1)C1CC(C)(C)NC(C)(C)C1` [Compound 5, 5-[3,5-difluoro-4-(1H-pyrazol-4-yl)phenyl]-N-methyl-N-(2,2,6,6-tetramethylpiperidin-4-yl)[1,3]thiazolo[5,4-d][1,3]thiazol-2-amine]: the pIC50 was at least 7.00.

On to `Oc1cc(-c2cn[nH]c2)ccc1-c1nc2sc(N3CCNCC3)nc2s1` [Compound 6, 2-[5-(piperazin-1-yl)[1,3]thiazolo[5,4-d][1,3]thiazol-2-yl]-5-(1H-pyrazol-4-yl)phenol], for which the pIC50 was 5.52 to 6.00.

`Cn1cc2cc(-c3nc4sc(N5CCNCC5)nc4s3)cc(C#N)c2n1` [Compound 7, 2-methyl-5-[5-(piperazin-1-yl)[1,3]thiazolo[5,4-d][1,3]thiazol-2-yl]-2H-indazole-7-carbonitrile] gave a pIC50 of 6.00 to 6.30.

`Cc1cn2nc(-c3cn4cc(C5CCNCC5)nc4s3)cc(C)c2n1` [Compound 8, 2,8-dimethyl-6-[6-(piperidin-4-yl)imidazo[2,1-b][1,3]thiazol-2-yl]imidazo[1,2-b]pyridazine] showed a pIC50 of at least 7.00.

In turn, `CN(c1nn2c(Cl)c(-c3ccc(-c4cn[nH]c4)cc3O)nc2s1)C1CC(C)(C)NC(C)(C)C1` [Compound 9, 2-{5-chloro-2-[methyl(2,2,6,6-tetramethylpiperidin-4-yl)amino]imidazo[2,1-b][1,3,4]thiadiazol-6-yl}-5-(1H-pyrazol-4-yl)phenol] had a pIC50 of 6.30 to 7.00.

The compound `Cc1cn2cc(-c3nc4sc(C5CCNCC5)nc4s3)cc(C#N)c2n1` [Compound 10, 2-methyl-6-[5-(piperidin-4-yl)[1,3]thiazolo[5,4-d][1,3]thiazol-2-yl]imidazo[1,2-a]pyridine-8-carbonitrile] showed a pIC50 of 6.30 to 7.00.

Compound `Cn1cc2cc(-c3nc4sc(C5CCNCC5)nc4s3)cc(F)c2n1` [Compound 11, 7-fluoro-2-methyl-5-[5-(piperidin-4-yl)[1,3]thiazolo[5,4-d][1,3]thiazol-2-yl]-2H-indazole] gave a pIC50 of at least 7.00.

`Cc1cn2nc(-c3nc4sc(C5CCNCC5)nc4s3)cc(C)c2n1` [Compound 12, 2,8-dimethyl-6-[5-(piperidin-4-yl)[1,3]thiazolo[5,4-d][1,3]thiazol-2-yl]imidazo[1,2-b]pyridazine] gave a pIC50 of 6.30 to 7.00.

`Oc1cc(-c2cn[nH]c2)ccc1-c1nc2sc(NC3CC4CCC(C3)N4)nc2s1` (stereo not drawn) [Compound 13, 2-{5-[(3-exo)-8-azabicyclo[3.2.1]oct-3-ylamino][1,3]thiazolo[5,4-d][1,3]thiazol-2-yl}-5-(1H-pyrazol-4-yl)phenol] showed a pIC50 of at least 7.00.

Take `CN(c1nc2sc(-c3ccc(-c4cn[nH]c4)cc3O)nc2s1)C1CCNCC1` [Compound 14, 2-{5-[methyl(piperidin-4-yl)amino][1,3]thiazolo[5,4-d][1,3]thiazol-2-yl}-5-(1H-pyrazol-4-yl)phenol]: the pIC50 is at least 7.00.

In the case of `Cn1cc2cc(-c3nc4sc(C5CCNCC5)nc4s3)cc(C#N)c2n1` [Compound 15, 2-methyl-5-[5-(piperidin-4-yl)[1,3]thiazolo[5,4-d][1,3]thiazol-2-yl]-2H-indazole-7-carbonitrile], the pIC50 is at least 7.00.

In turn, `Cc1cc(-c2nc3sc(C4CCNCC4)nc3s2)cc2cn(C)nc12` [Compound 16, 2,7-dimethyl-5-[5-(piperidin-4-yl)[1,3]thiazolo[5,4-d][1,3]thiazol-2-yl]-2H-indazole] showed a pIC50 of at least 7.00.

`CN(c1nn2cc(-c3ccc(-c4cn[nH]c4)cc3O)nc2s1)C1CC(C)(C)NC(C)(C)C1` [Compound 17, 2-{2-[methyl(2,2,6,6-tetramethylpiperidin-4-yl)amino]imidazo[2,1-b][1,3,4]thiadiazol-6-yl}-5-(1H-pyrazol-4-yl)phenol] gave a pIC50 of 6.00 to 6.30.

Consider `CN(c1nn2cc(-c3ccc(-c4cn[nH]c4)cc3O)nc2s1)C1CC2CCC(C1)N2` (stereo not drawn) [Compound 18, 2-{2-[(3-exo)-8-azabicyclo[3.2.1]oct-3-yl(methyl)amino]imidazo[2,1-b][1,3,4]thiadiazol-6-yl}-5-(1H-pyrazol-4-yl)phenol], for which the pIC50 is 6.30 to 7.00.

For `CN1C2CCC1CC(Nc1nn3cc(-c4ccc(-c5cn[nH]c5)cc4O)nc3s1)C2` (stereo not drawn) [Compound 19, 2-(2-{[(3-exo)-8-methyl-8-azabicyclo[3.2.1]oct-3-yl]amino]imidazo[2,1-b][1,3,4]thiadiazol-6-yl)-5-(1H-pyrazol-4-yl)phenol], the pIC50 was 6.30 to 7.00.

`CN(c1nc2sc(-c3cc(F)c(-c4cn[nH]c4)cc3F)nc2s1)C1CCNCC1` [Compound 20, 5-[2,5-difluoro-4-(1H-pyrazol-4-yl)phenyl]-N-methyl-N-(piperidin-4-yl)[1,3]thiazolo[5,4-d][1,3]thiazol-2-amine]: the pIC50 was 6.30 to 7.00.

On to `CN(c1nc2sc(-c3cc(F)c(-c4cn[nH]c4)c(F)c3)nc2s1)C1CCNCC1` [Compound 21, 5-[3,5-difluoro-4-(1H-pyrazol-4-yl)phenyl]-N-methyl-N-(piperidin-4-yl)[1,3]thiazolo[5,4-d][1,3]thiazol-2-amine], for which the pIC50 is 5.52 to 6.00.

`Oc1cc(-c2cn[nH]c2)ccc1-c1nc2sc(NC3CCNCC3)nc2s1` [Compound 22, 2-[5-(piperidin-4-ylamino)[1,3]thiazolo[5,4-d][1,3]thiazol-2-yl]-5-(1H-pyrazol-4-yl)phenol]: the pIC50 is at least 7.00.

As to `CN1CCC(Nc2nc3sc(-c4ccc(-c5cn[nH]c5)cc4O)nc3s2)CC1` [Compound 23, 2-{5-[(1-methylpiperidin-4-yl)amino][1,3]thiazolo[5,4-d][1,3]thiazol-2-yl}-5-(1H-pyrazol-4-yl)phenol], the pIC50 is at least 7.00.

`CN1CCC(N(C)c2nc3sc(-c4ccc(-c5cn[nH]c5)cc4O)nc3s2)CC1` [Compound 24, 2-{5-[methyl(1-methylpiperidin-4-yl)amino][1,3]thiazolo[5,4-d][1,3]thiazol-2-yl}-5-(1H-pyrazol-4-yl)phenol] showed a pIC50 of at least 7.00.

`Cn1cc2cc(-c3nc4sc(C5CCNCC5)nc4s3)ccc2n1` [Compound 25, 2-methyl-5-[5-(piperidin-4-yl)[1,3]thiazolo[5,4-d][1,3]thiazol-2-yl]-2H-indazole] had a pIC50 of 6.30 to 7.00.
